Assay results: publication PMC7230232, “Secondary Metabolites from the Culture of the Marine-derived Fungus Paradendryphiella salina PC 362H and Evaluation of the Anticancer Activity of Its Metabolite Hyalodendrin” (Marine Drugs, 2020)
Values joined by “and” are separate entries in the source; they are usually repeats but may differ in a detail not shown here. Equal values may be shown once. Read-outs that look alike come from different tables or passages of the source.

What was measured:
HT29 SN-38 = experiment: MTT cell viability assay, HT29 SN-38; type: cell-based; conditions: Homo sapiens, HT-29; colon; SN-38 resistant
Method: (§1) Cellular viability was determined by the MTT (methylthiazolyldiphenyl-tetrazolium bromide) assay. Briefly, cells were exposed to the indicated concentrations of crude extracts or compounds 1–4 for five doubling times and then incubated for 3 h at 37 °C with MTT. Formazan crystals were then dissolved in DMSO and optical density measured at 570 nm in a microplate reader. The half-maximal inhibitory concentration (IC50) was determined. Values given for crude extracts are averages of at least two experiments done in duplicate. IC50 values calculated for the four isolated compounds and the commercially available 4-hydroxy-tamoxifen (Sigma-Aldrich) are averages of at least three experiments done in duplicate.

HCT116 SN-38 = experiment: MTT cell viability assay, HCT116 SN-38; type: cell-based; conditions: Homo sapiens, HCT-116; colon; SN-38 resistant
Method: as §1

MCF7-Sh-WISP2 cells [1] = experiment: MTT cell viability assay, MCF7-Sh-WISP2; type: cell-based, human; conditions: for IC50: Homo sapiens
Method: as §1

HT29 = experiment: MTT cell viability assay, HT29; type: cell-based; conditions: Homo sapiens, HT-29; colon
Method: as §1

SW480 = experiment: MTT cell viability assay, SW480; type: cell-based; conditions: Homo sapiens, colon
Method: as §1

[2] = target: T1, NADPH-dependent thioredoxin reductase (Trr1) (Saccharomyces cerevisiae, UniProt P29509); experiment: In vitro reduction by NADPH thioredoxin reductase alone (NADPH consumption); type: biochemical; conditions: yeast NTR (Trr1) alone, versus ACN control
T1 construct: made in house
T1 sequence (P29509 whole entry): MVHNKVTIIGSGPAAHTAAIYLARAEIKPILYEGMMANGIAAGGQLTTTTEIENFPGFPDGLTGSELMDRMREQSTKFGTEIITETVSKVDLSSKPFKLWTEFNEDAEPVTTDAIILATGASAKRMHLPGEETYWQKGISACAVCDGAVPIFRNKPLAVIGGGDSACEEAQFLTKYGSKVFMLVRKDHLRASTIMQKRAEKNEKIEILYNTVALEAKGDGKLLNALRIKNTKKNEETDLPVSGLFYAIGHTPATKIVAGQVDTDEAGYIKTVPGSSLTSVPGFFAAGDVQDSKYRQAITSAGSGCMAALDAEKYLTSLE
Method: (§2) Thioredoxin 1 (Trx1) and NADPH-dependent thioredoxin reductase (Trr1) from Saccharomyces cerevisiae were cloned and produced as described previously. Thioredoxin activity was measured spectrophotometrically (Uvikon XS; Secomam) in 1 mL cuvette by following NADPH consumption at 340 nm over 2 min. The reaction was performed in 100 µM NADPH, 246 nM of Trr1 in 30 mM Tris-HCl buffer (pH 7.9) and in the presence or not of 65 nM of Trx1. The reaction was initiated by adding 10 µL of 50 mM of 3 in acetonitrile or 10 µL of acetonitrile (ACN, Control experiment). For each condition, NADPH consumption experiments were performed in triplicate and results were represented as the mean ± SD. The significance of the results was evaluated by Student’s t-test.

RKO = experiment: MTT cell viability assay, RKO; type: cell-based; conditions: Homo sapiens, colon
Method: as §1

MCF7-Sh-WISP2 cells [3] = experiment: Human cell stress array and immunoblotting; type: cell-based
Method: MCF7-Sh-WISP2 cells were treated for 48 h with 5.7 µM of 3 (corresponding to 3.8 × 10^−5 nmol of drug per cell), harvested and lysed for 30 min on ice with 0.4 mL of cell lysis buffer containing a cocktail of protease inhibitors. The lysates were centrifuged at 14,000 g for 5 min at 4 °C. Human cell stress proteins were detected using the Proteome Profiler human cell stress array kit (# ARY018, R&D systems) according to the manufacturer’s instructions. The chemiluminescent images of the slide were captured with the Chemidoc system (Biorad).
(§3) MCF7-Sh-WISP2 cells were incubated for 72 h at 37 °C with 2.4 µM of 3 (corresponding to 3.8 × 10^−5 nmol of drug per cell). Cells were then washed twice with Phosphate-Buffer Saline (PBS) 1X and lysed for 30 min in RIPA buffer (150 mM NaCl, 1.0% IGEPAL® CA-630, 0.5% sodium deoxycholate, 0.1% SDS, 50 mM Tris, pH 8.0). Proteins (20 µg) were resolved on sodium dodecyl sulfate polyacrylamide gel (SDS/PAGE) (12%) and blotted onto nitrocellulose membranes (Bio-Rad). […] Antigens were detected using an enhanced chemiluminescence kit (Biorad) using the Chemidoc system (Biorad). Protein quantitation was calculated using Image Lab software developed by Bio-Rad.

MCF7-Sh-WISP2 cells [4] = experiment: Cell cycle progression by propidium iodide flow cytometry; type: cell-based, human; conditions: 380 nM
Method: Figure S5. Cell cycle progression of MCF7-Sh-WISP2 cells in response to compound 3 exposure.
After treatment with 380 nM of 3 (hyalodendrin) (corresponding to 1.9 10-5 nmol of drug per cell), cells were collected, counted and fixed with 70 % ethanol. Cells were then stained with 40 μg/mL propidium iodide (PI) (Biolegend) containing RNaseA (100 µg/mL), prior analysis on a Gallios flow cytometer (Beckman Coulter, Inc, Villepinte, France). The results were analyzed using the Venturi One V6 software (Applied Cytometry).
(1 picture or pasted object on this page, not shown here)

MDA-MB-231 = experiment: MTT cell viability assay, MDA-MB-231; type: cell-based; conditions: Homo sapiens, breast, mesenchymal, invasive
Method: as §1

LS174T = experiment: MTT cell viability assay, LS174T; type: cell-based; conditions: Homo sapiens, colon
Method: as §1

MCF7-Sh-WISP2 cells [5] = experiment: Intracellular signaling array and immunoblotting; type: cell-based, human
Method: MCF7-Sh-WISP2 cells were treated for 48 h with 2.8 µM of 3 (corresponding to 3.8 × 10^−5 nmol of drug per cell), harvested and lysed on ice for 5 min with 0.5 mL of cell lysis buffer containing a cocktail of protease inhibitors. The lysates were centrifuged at 14,000 g for 1 min at 4 °C. Intracellular signaling molecules were detected using a PathScan® intracellular signaling array kit (# 7323, Cell Signaling Technology) according to the manufacturer’s procedure. The chemiluminescent images of the slide were captured with the Chemidoc system (Biorad).
as §3

[6] = target: T2, thioredoxin system (Trr1+Trx1) (Saccharomyces cerevisiae, UniProt P22217); experiment: In vitro reduction by the reconstituted thioredoxin system (NADPH consumption); type: biochemical; conditions: versus ACN control
T2 construct: made in house
T2 sequence (P22217 whole entry): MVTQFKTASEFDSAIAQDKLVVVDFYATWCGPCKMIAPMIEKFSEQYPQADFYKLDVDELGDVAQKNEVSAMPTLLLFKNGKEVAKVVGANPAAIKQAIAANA
Method: as §2

LS513 = experiment: MTT cell viability assay, LS513; type: cell-based; conditions: Homo sapiens, LS-513; colon
Method: as §1

HCT116 5FU = experiment: MTT cell viability assay, HCT116 5FU; type: cell-based; conditions: Homo sapiens, HCT-116; colon; 5-fluorouracil resistant
Method: as §1

HT29 oxa = experiment: MTT cell viability assay, HT29 oxa; type: cell-based; conditions: Homo sapiens, HT-29; colon; oxaliplatin resistant
Method: as §1

MCF7 cells = experiment: MTT cell viability assay, MCF7; type: cell-based, human; conditions: Homo sapiens
Method: as §1

HT29 5FU = experiment: MTT cell viability assay, HT29 5FU; type: cell-based; conditions: Homo sapiens, HT-29; colon; 5-fluorouracil resistant
Method: as §1

SW48 = experiment: MTT cell viability assay, SW48; type: cell-based; conditions: Homo sapiens, colon
Method: as §1

**Q.** With CN1C(=O)[C@@]2(Cc3ccccc3)SS[C@]1(CO)C(=O)N2C [Compound 3, (3R, 6R) Hyalodendrin] as the compound, how does the IC50 (HT29 SN-38) read?
**A.** 93.8 ± 13.6 nM

**Q.** What about the IC50 (HCT116 SN-38) of the same compound?
**A.** 43.8 ± 4.2 nM

**Q.** What about the IC50 (MCF7-Sh-WISP2 cells [1]; read-out: IC50 MC7-Sh-WISP2) of the same compound?
**A.** 142 ± 3 nM

**Q.** What about the IC50 (MCF7-Sh-WISP2 cells [1]; read-out: IC50 MCF7-Sh-WISP2) of the same compound?
**A.** 0.046 µg/mL and 140 nM

**Q.** What about the “IC50 for MCF7-Sh-WISP2 expressed as amount of 3 per cell” value (MCF7-Sh-WISP2 cells [1]; corresponds to IC50 of 140 nM in the viability assay) of the same compound?
**A.** 3.8 × 10^−5 nmol of 3 per cell

**Q.** And the IC50 (HT29)?
**A.** 58 ± 13.7 nM

**Q.** What about the IC50 (SW480) of the same compound?
**A.** 164 ± 11 nM

**Q.** And the NADPH consumption increase [2]?
**A.** ca. three

**Q.** And the IC50 (RKO)?
**A.** 74.3 ± 1.9 nM

**Q.** And the “phosphorylation of p53 on serine 46” value (MCF7-Sh-WISP2 cells [3]; 5.7 µM for 48 h (array), 2.4 µM for 72 h (Western blot))?
**A.** decreased phosphorylation

**Q.** And the BAX expression (MCF7-Sh-WISP2 cells [3]; Western blot, 2.4 µM for 72 h)?
**A.** decreased expression

**Q.** What about the “expression levels of HSP60 and HSP70 proteins” value (MCF7-Sh-WISP2 cells [3]; array, 5.7 µM for 48 h) of the same compound?
**A.** marked decrease

**Q.** And the “p21 protein expression levels” value (MCF7-Sh-WISP2 cells [3]; array, 5.7 µM for 48 h)?
**A.** no increase

**Q.** What about the cell cycle progression (MCF7-Sh-WISP2 cells [4]) of the same compound?
**A.** no significant changes

**Q.** What about the IC50 (MDA-MB-231) of the same compound?
**A.** 132 ± 13.4 nM

**Q.** What about the IC50 (LS174T) of the same compound?
**A.** 158 ± 13 nM

**Q.** What about the “phosphorylation of p53 on serine 15” value (MCF7-Sh-WISP2 cells [5]; 2.8 µM for 48 h (array), 2.4 µM for 72 h (Western blot)) of the same compound?
**A.** increased phosphorylation

**Q.** And the “PRAS40 protein expression levels” value (MCF7-Sh-WISP2 cells [5]; Western blot, 2.4 µM for 72 h)?
**A.** general decrease

**Q.** And the “cleavage of PARP or caspase-3” value (MCF7-Sh-WISP2 cells [5]; signaling array)?
**A.** no cleavage

**Q.** What about the NADPH consumption increase [6] of the same compound?
**A.** ~14 folds

**Q.** What about the IC50 (LS513) of the same compound?
**A.** 78 ± 9.3 nM

**Q.** And the IC50 (HCT116 5FU)?
**A.** 72 ± 10.9 nM

**Q.** And the IC50 (HT29 oxa)?
**A.** 142 ± 2.6 nM

**Q.** What about the IC50 (MCF7 cells; MCF7, read-out: IC50 MCF7, breast, epithelial) of the same compound?
**A.** 216 ± 6 nM

**Q.** What about the IC50 (MCF7 cells; MCF7, read-out: IC50 MCF7, pure compounds, MTT) of the same compound?
**A.** 0.07 µg/mL and 220 nM

**Q.** And the IC50 (HT29 5FU)?
**A.** 147 ± 10.2 nM

**Q.** And the IC50 (SW48)?
**A.** 149 ± 15.5 nM
